Experimental data: patent publication US8993574B2, “Pyrrole antifungal agents” (F2G Ltd, priority 2008, dated 2015)
Converted amounts (≈) assume the structure as drawn.

Columns and labels:
Format in all cases: cell-based
[1] = test system: Aspergillus fumigatus AF293; assay: MIC, YAG medium; details: 24 h at 35° C, MIC banded into grades; for MIC: Aspergillus fumigatus, read-out: MIC grade, A. fumigatus
Summary of the method: (§1)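 Spores from 5-day Sabouraud agar cultures were suspended in YAG medium (1% glucose, 1% ammonium chloride, 0.5% yeast extract) at final inocula of 1−2×10^4 cfu/mL against doubling dilutions of compound (50-0.05 mg/L; 0.5-0.0005 mg/L on repeat). Plates were incubated 24 h at 35° C. MIC was the lowest concentration giving >70% growth inhibition by OD485 versus drug-free control.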

Aspergillus terreus AT4 [2] = assay: MIC, YAG medium; details: 24 h at 35° C, MIC banded into grades; for MIC: Aspergillus terreus, read-out: MIC grade, A. terreus
Summary of the method: as §1

Aspergillus niger [3] = assay: MIC, YAG medium; details: 24 h at 35° C, MIC banded into grades; for MIC: Aspergillus niger, read-out: MIC grade, A. niger
Summary of the method: as §1

[4] = test system: Aspergillus fumigatus AF210; assay: MIC, YAG medium; details: 24 h at 35° C, MIC banded into grades; for MIC: Aspergillus fumigatus, read-out: MIC grade, A. fumigatus 210
Summary of the method: as §1

Aspergillus terreus AT49 [5] = assay: MIC, YAG medium; details: 24 h at 35° C, MIC banded into grades; for MIC: Aspergillus terreus, read-out: MIC grade, A. terreus 49
Summary of the method: as §1

Aspergillus flavus [6] = assay: MIC, YAG medium; details: 24 h at 35° C, MIC banded into grades; for MIC: Aspergillus flavus, 24 h, read-out: MIC grade, A. flavus
Summary of the method: as §1

[7] = test system: Aspergillus fumigatus AF293; assay: MIC, RPMI medium; details: for MIC: Aspergillus fumigatus, AF293, MIC banded into grades, read-out: MIC grade, A. fumigatus; for MIC grade, A. fumigatus: MIC banded into grades
Summary of the method: (§2)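 RPMI (2% glucose, 0.135 M MOPS, pH 7.0) microdilution; drug 50-0.05 mg/L doubling series; inoculum 1−2×10^4 cfu/mL; 24-48 h, 35° C; OD485; MIC = lowest conc. with >80% inhibition vs drug-free control.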

Aspergillus terreus AT4 [8] = assay: MIC, RPMI medium; details: for MIC: Aspergillus terreus, AT4, MIC banded into grades, read-out: MIC grade, A. terreus; for MIC grade, A. terreus: MIC banded into grades
Summary of the method: as §2

Candida glabrata = assay: MIC, RPMI medium; details: 24-48 h at 35° C., >80% growth inhibition, banded into grades; for MIC: Nakaseomyces glabratus
Summary of the method: as §2

Aspergillus niger [9] = assay: MIC, RPMI medium; details: MIC banded into grades; for MIC: Aspergillus niger, read-out: MIC grade, A. niger
Summary of the method: as §2

[10] = test system: Aspergillus fumigatus AF210; assay: MIC, RPMI medium; details: for MIC: Aspergillus fumigatus, AF210, MIC banded into grades, read-out: MIC grade, A. fumigatus 210; for MIC grade, A. fumigatus 210: MIC banded into grades
Summary of the method: as §2

Candida albicans = assay: MIC, RPMI medium; details: 24-48 h at 35° C., >80% growth inhibition, banded into grades; for MIC: Candida albicans
Summary of the method: as §2

Candida krusei = assay: MIC, RPMI medium; details: 24-48 h at 35° C., >80% growth inhibition, banded into grades; for MIC: Pichia kudriavzevii
Summary of the method: as §2

Candida tropicalis = assay: MIC, RPMI medium; details: 24-48 h at 35° C., >80% growth inhibition, banded into grades; for MIC: Candida tropicalis
Summary of the method: as §2

Candida parapsilosis = assay: MIC, RPMI medium; details: 24-48 h at 35° C., >80% growth inhibition, banded into grades; for MIC: Lodderomyces parapsilosis
Summary of the method: as §2

Aspergillus terreus AT49 [11] = assay: MIC, RPMI medium; details: for MIC: Aspergillus terreus, AT49, MIC banded into grades, read-out: MIC grade, A. terreus 49; for MIC grade, A. terreus 49: MIC banded into grades
Summary of the method: as §2

Aspergillus flavus [12] = assay: MIC, RPMI medium; details: MIC banded into grades; for MIC: Aspergillus flavus, read-out: MIC grade, A. flavus
Summary of the method: as §2

Compound | MIC [1] [mg/L] | MIC (Aspergillus terreus AT4 [2]) [mg/L] | MIC (Aspergillus niger [3]) [mg/L] | MIC [4] [mg/L] | MIC (Aspergillus terreus AT49 [5]) [mg/L] | MIC (Aspergillus flavus [6]) [mg/L] | MIC [7] [mg/L] | MIC (Aspergillus terreus AT4 [8]) [mg/L] | MIC (Candida glabrata) [mg/L] | MIC (Aspergillus niger [9]) [mg/L] | MIC [10] [mg/L] | MIC (Candida albicans) [mg/L] | MIC (Candida krusei) [mg/L] | MIC (Candida tropicalis) [mg/L] | MIC (Candida parapsilosis) [mg/L] | MIC (Aspergillus terreus AT49 [11]) [mg/L] | MIC (Aspergillus flavus [12]) [mg/L] | also measured
COCCn1c(C)cc(-c2ccccc2)c1C(=O)C(=O)Nc1ccc(N2CCN(c3cc(C)cc(C)n3)CC2)cc1 [Example 9, N-{4-[4-(4,6-Dimethyl-pyridin-2-yl)-piperazin-1-yl]-phenyl}-2-[1-(2-methoxy-ethyl)-5-methyl-3-phenyl-1H-pyrrol-2-yl]-2-oxo-acetamide] | < 1 | < 1 | < 1 | < 1 | < 1 | < 1 | < 1 | 1 to 10 (≈ 1.81 to 18.1 µM) | < 1 | < 1 | < 1 | 1 to 10 (≈ 1.81 to 18.1 µM) | < 1 | 1 to 10 (≈ 1.81 to 18.1 µM) | < 1 | 1 to 10 (≈ 1.81 to 18.1 µM) | > 10 | –
Cc1cc(C)nc(N2CCN(c3ccc(NC(=O)C(=O)c4c(-c5cccs5)cc(C)n4C)cc3)CC2)c1 [Example 13, N-{4-[4-(4,6-Dimethyl-pyridin-2-yl)-piperazin-1-yl]-phenyl}-2-(1,5-dimethyl-3-thiophen-2-yl-1H-pyrrol-2-yl)-2-oxo-acetamide] | < 1 | < 1 | < 1 | < 1 | < 1 | < 1 | < 1 | < 1 | < 1 | < 1 | < 1 | < 1 | < 1 | < 1 | < 1 | < 1 | < 1 | –
COCCn1ccc(-c2ccccc2)c1C(=O)C(=O)Nc1ccc(N2CCN(c3cc(C)cc(C)n3)CC2)cc1 [Example 47, N-{4-[4-(4,6-Dimethyl-pyridin-2-yl)-piperazin-1-yl]-phenyl}-2-[1-(2-methoxy-ethyl)-3-phenyl-1H-pyrrol-2-yl]-2-oxo-acetamide] | < 1 | 1 to 10 (≈ 1.86 to 18.6 µM) | 1 to 10 (≈ 1.86 to 18.6 µM) | < 1 | < 1 | < 1 | 1 to 10 (≈ 1.86 to 18.6 µM) | 1 to 10 (≈ 1.86 to 18.6 µM) | < 1 | 1 to 10 (≈ 1.86 to 18.6 µM) | 1 to 10 (≈ 1.86 to 18.6 µM) | 1 to 10 (≈ 1.86 to 18.6 µM) | 1 to 10 (≈ 1.86 to 18.6 µM) | 1 to 10 (≈ 1.86 to 18.6 µM) | 1 to 10 (≈ 1.86 to 18.6 µM) | 1 to 10 (≈ 1.86 to 18.6 µM) | 1 to 10 (≈ 1.86 to 18.6 µM) | –
COC(=O)Cn1c(C)cc(-c2ccccc2)c1C(=O)C(=O)Nc1ccc(N2CCN(c3cc(C)cc(C)n3)CC2)cc1 [Example 52, (2-{4-[4-(4,6-Dimethyl-pyridin-2-yl)-piperazin-1-yl]-phenylaminooxalyl}-5-methyl-3-phenyl-pyrrol-1-yl)-acetic acid methyl ester] | – | – | – | – | – | – | – | – | – | – | – | – | – | – | – | – | – | MIC grade, A. fumigatus [1]: 3 (A grade of 3 represents an MIC of less than 1 mg/L); MIC grade, A. terreus (Aspergillus terreus AT4 [2]): 3 (A grade of 3 represents an MIC of less than 1 mg/L); MIC grade, A. niger (Aspergillus niger [3]): 3 (A grade of 3 represents an MIC of less than 1 mg/L); MIC grade, A. fumigatus 210 [4]: 3 (A grade of 3 represents an MIC of less than 1 mg/L); MIC grade, A. terreus 49 (Aspergillus terreus AT49 [5]): 3 (A grade of 3 represents an MIC of less than 1 mg/L); MIC grade, A. flavus (Aspergillus flavus [6]): 3 (A grade of 3 represents an MIC of less than 1 mg/L); MIC grade, A. fumigatus [7]: 3 (A grade of 3 represents an MIC of less than 1 mg/L); MIC grade, A. terreus (Aspergillus terreus AT4 [8]): 3 (A grade of 3 represents an MIC of less than 1 mg/L); Candida MIC, C. glabrata (Candida glabrata): 3 (A grade of 3 represents an MIC of less than 1 mg/L); MIC grade, A. niger (Aspergillus niger [9]): 3 (A grade of 3 represents an MIC of less than 1 mg/L); MIC grade, A. fumigatus 210 [10]: 3 (A grade of 3 represents an MIC of less than 1 mg/L); Candida MIC, C. albicans (Candida albicans): 2 (A grade of 2 represents an MIC of from 1 to 10 mg/L); Candida MIC, C. krusei (Candida krusei): 3 (A grade of 3 represents an MIC of less than 1 mg/L); Candida MIC, C. tropicalis (Candida tropicalis): 2 (A grade of 2 represents an MIC of from 1 to 10 mg/L); Candida MIC, C. parapsilosis (Candida parapsilosis): 2 (A grade of 2 represents an MIC of from 1 to 10 mg/L); MIC grade, A. terreus 49 (Aspergillus terreus AT49 [11]): 3 (A grade of 3 represents an MIC of less than 1 mg/L); MIC grade, A. flavus (Aspergillus flavus [12]): 2 (A grade of 2 represents an MIC of from 1 to 10 mg/L)
COCCn1ccc(-c2ccccc2Cl)c1C(=O)C(=O)Nc1ccc(N2CCN(c3cc(C)cc(C)n3)CC2)cc1 [Example 57, 2-[3-(2-Chloro-phenyl)-1-(2-methoxy-ethyl)-1H-pyrrol-2-yl]-N-{4-[4-(4,6-dimethyl-pyridin-2-yl)-piperazin-1-yl]-phenyl}-2-oxo-acetamide] | < 1 | 1 to 10 (≈ 1.75 to 17.5 µM) | 1 to 10 (≈ 1.75 to 17.5 µM) | < 1 | < 1 | 1 to 10 (≈ 1.75 to 17.5 µM) | 1 to 10 (≈ 1.75 to 17.5 µM) | 1 to 10 (≈ 1.75 to 17.5 µM) | < 1 | 1 to 10 (≈ 1.75 to 17.5 µM) | 1 to 10 (≈ 1.75 to 17.5 µM) | 1 to 10 (≈ 1.75 to 17.5 µM) | < 1 | 1 to 10 (≈ 1.75 to 17.5 µM) | 1 to 10 (≈ 1.75 to 17.5 µM) | 1 to 10 (≈ 1.75 to 17.5 µM) | > 10 | –
COCCn1ccc(-c2ccc(Cl)cc2)c1C(=O)C(=O)Nc1ccc(N2CCN(c3cc(C)cc(C)n3)CC2)cc1 [Example 59, 2-[3-(4-Chloro-phenyl)-1-(2-methoxy-ethyl)-1H-pyrrol-2-yl]-N-{4-[4-(4,6-dimethyl-pyridin-2-yl)-piperazin-1-yl]-phenyl}-2-oxo-acetamide] | 1 to 10 (≈ 1.75 to 17.5 µM) | 1 to 10 (≈ 1.75 to 17.5 µM) | > 10 | 1 to 10 (≈ 1.75 to 17.5 µM) | 1 to 10 (≈ 1.75 to 17.5 µM) | > 10 | 1 to 10 (≈ 1.75 to 17.5 µM) | > 10 | < 1 | > 10 | 1 to 10 (≈ 1.75 to 17.5 µM) | < 1 | 1 to 10 (≈ 1.75 to 17.5 µM) | < 1 | < 1 | > 10 | > 10 | –
Cc1cc(-c2ccccc2)c(C(=O)C(=O)Nc2ccc(-c3ncc(CN4CCCCC4)o3)cc2)n1C [Example 153, 2-(1,5-Dimethyl-3-phenyl-1H-pyrrol-2-yl)-2-oxo-N-[4-(5-piperdin-1-ylmethyl-oxazol-2-yl)-phenyl]-acetamide] | – | – | – | – | – | – | – | – | – | – | – | – | – | – | – | – | – | MIC grade, A. fumigatus [1]: 3 (A grade of 3 represents an MIC of less than 1 mg/L); MIC grade, A. terreus (Aspergillus terreus AT4 [2]): 2 (A grade of 2 represents an MIC of from 1 to 10 mg/L); MIC grade, A. niger (Aspergillus niger [3]): 3 (A grade of 3 represents an MIC of less than 1 mg/L); MIC grade, A. fumigatus 210 [4]: 2 (A grade of 2 represents an MIC of from 1 to 10 mg/L); MIC grade, A. terreus 49 (Aspergillus terreus AT49 [5]): 3 (A grade of 3 represents an MIC of less than 1 mg/L); MIC grade, A. flavus (Aspergillus flavus [6]): 3 (A grade of 3 represents an MIC of less than 1 mg/L); MIC grade, A. fumigatus [7]: 2 (A grade of 2 represents an MIC of from 1 to 10 mg/L); MIC grade, A. terreus (Aspergillus terreus AT4 [8]): 3 (A grade of 3 represents an MIC of less than 1 mg/L); MIC grade, A. niger (Aspergillus niger [9]): 3 (A grade of 3 represents an MIC of less than 1 mg/L); MIC grade, A. fumigatus 210 [10]: 2 (A grade of 2 represents an MIC of from 1 to 10 mg/L); MIC grade, A. terreus 49 (Aspergillus terreus AT49 [11]): 3 (A grade of 3 represents an MIC of less than 1 mg/L); MIC grade, A. flavus (Aspergillus flavus [12]): 2 (A grade of 2 represents an MIC of from 1 to 10 mg/L)
Cc1cc(-c2ccccc2)c(C(=O)C(=O)Nc2ccc(N3CCOCC3)cc2)n1C [Example 154, 2-(1,5-Dimethyl-3-phenyl-1H-pyrrol-2-yl)-N-(4-morpholin-4-yl-phenyl)-2-oxo-acetamide] | < 1 | < 1 | < 1 | < 1 | < 1 | < 1 | < 1 | < 1 | – | < 1 | < 1 | – | – | – | – | < 1 | < 1 | –
